Assay results: patent US11484522B2, “Composite formulation and use thereof for preparing drugs for the treatment of tumours” (TIANJIN MEDICAL UNIVERSITY GENERAL HOSPITAL, priority 2018, dated 2022)

What was measured:
[1] = system: binding of HOTAIR to the target genes; test: CHIRP experiments, binding of HOTAIR to target genes; details: 40 nM
Source text: (§1) Therefore, the inhibiting effect of 36806 on HOTAIR-EZH2 is specific.

[2] = system: HOTAIR target genes; test: qPCR RNA level of HOTAIR target genes in tumor cell lines; format: cell-based
Procedure: FIG. 2B: The variations in RNA level of a target gene 48 h after treating with 40 nM of 36806 in multiple tumor cell lines.
FIG. 4A: RNA levels change of target genes in glioma and breast cancer cell lines after treating with 40 uM of 36806 for 48 hours.
FIG. 4C: RNA levels change of target genes after treating with low-dose 36806 concentration gradient for 48 hours.
(§2) Therefore, 36806 is capable of inhibiting the binding of HOTAIR to EZH2 at low concentrations and interfering with the recruitment of PRC2 to target genes, to relieve the target genes from silent suppression of histone methylation, thereby altering the function of epigenetic regulation.

[3] = system: multiple tumor cell lines; details: glioblastoma (U87-MG, LN229, primary N33), breast cancer (MDA-MB-231, MCF-7), HeLa, A375, SGC-7901, MGC-803, HepG2, PC9 cell lines
Procedure: Toxicity tests were then performed in multiple tumor cell lines.

[4] = system: H3K27me3 in the promoter region of the target genes; test: CHIP experiments, H3K27me3 and RNA polymerase II in promoter region of target genes; format: cell-based
Source text: FIG. 3F: Chromatin immunoprecipitation (CHIP) experiments verified that 36806 affected the recruitment of PRC2 by HOTAIR after hindering the binding of HOTAIR to EZH2, such that the level of H3K27me3 in the promoter region of the target genes was reduced and the target genes were transcriptionally activated.
FIG. 5A: The Site1 region before the transcription initiation of APC2 is a transcription promoter region of APC2 and a binding region of H3K27me3.
FIG. 5B: After the treatment with 36806, the binding of H3K27me3 in Site1 region was weakened, and the binding of RNA polymerase II was strengthened.
as §1
(§3) Among the three predicted H3K27me3 binding sites in the promoter region of the target gene adenomatous polyposis coli 2 (APC2), sitel is a significant binding region of H3K27me3 (FIG. 5A). After the treatment with 36806, the binding of H3K27me3 in sitel region was weakened, and the binding of RNA polymerase II was strengthened (FIGS. 5B and 5C). […] APC2 is a tumor suppressor gene that can participate in the degradation of beta-catenin by ubiquitination and can inhibit the WNT signal path. The increased expression of APC2 can boost the degradation of beta-catenin. The nucleus-cytoplasm distribution of beta-catenin of cells in the treated group was decreased compared with that of the DMSO group (FIGS. 5D-5F). In this way, the downstream transcription of beta-catenin is inhibited, the expression of downstream EMT-related gene of multiple tumor cell lines is inhibited, and the protein expression is reduced (FIGS. 5G). Therefore, the invasion of tumor cells is weakened (FIG. 5H). Therefore, 36806 can inhibits the WNT signal path, reverses tumor EMT, and reduces tumor invasion and metastasis by increasing the expression level of target gene APC2.

[5] = system: beta-catenin; test: Immunofluorescence and WB of beta-catenin and downstream EMT-related genes; format: cell-based
Source text: as §3

[6] = system: glioblastoma, breast cancer, melanoma and gastric cancer cell lines; test: Transwell invasion assay; format: cell-based; details: low-dose 40 nM (FIG. 5H)
Source text: as §3

[7] = system: HOTAIR target genes; test: Western blot of protein level of HOTAIR target genes; format: cell-based
Procedure: as §2
The combination index (CI) of 36806 and DZNEP was measured by CalcuSyn software. […] After the transfection of EZH2 interfering RNA, combined with 36806 treatment, the transcription level of HOTAIR's target genes was higher (FIG. 7C). […] When used in combination with low-dose 36806, the dosage of DZNEP can be reduced by ⅘ (FIG. 7D).

[8] = system: MDA-MB-231 breast cancer orthotopic model; test: Breast cancer orthotopic model established with MDA-MB-231 cell line; format: in vivo, mouse; details: 50 mg/kg intraperitoneal
Source text: To further verify the anti-tumor effect of 36806 in vivo, a breast cancer orthotopic model is established by using a MDA-MB-231 cell line. […] The tumor volume measured on the body surface was reduced, and the size and wet weight of the tumor after dissection were reduced as well (FIGS. 6C-6D). […] HE staining confirmed the orthotopic lung metastasis of breast cancer (FIG. 6F). […] The above is consistent with the results of in-vitro experiments, that is, 36806 can inhibit the proliferation and metastasis of breast cancer orthotopic model.
A breast cancer orthotopic model is established by using a MDA-MB-231 cell line. 0.2 mg/kg 36806 in combination with 0.2 mg/kg DZNEP served as a combination group (the molar ratio was about 1:1), 0.2 mg/kg 36806 and 1 mg/kg DZNEP served as single-drug groups, and DMSO served as a control group.

[9] = 40 uM, 48 hours, glioma and breast cancer cell lines
[10] = low concentration gradient of 10 nM to 10 uM, 48 hours

## CC(C)NCC1Cc2cc(Cl)cc(Cl)c2O1 (stereo not drawn) [compound 36806, N-[(5,7-dichloro-2,3-dihydro-1-benzofuran-2-yl)methyl]propan-2-amine]
[1]
  binding of HOTAIR to the target genes (CHIRP): without affecting
[2]; [9]
  mRNA level of HOTAIR's target genes HOXD10, PCDH10, PCDHB5, NLK, APC2: increase
[2]; RNA level, 40 nM, 48 h, multiple tumor cell lines
  expression level of HOTAIR target genes: up-regulate
[2]; [10]
  RNA level of the target genes: increased
[3]
  IC50 of 36806: low
[4]
  level of H3K27me3 in the promoter region of the target genes (CHIP): reduced
[4]; after treatment with 36806
  binding of H3K27me3 in site1 region of APC2 promoter: weakened
  binding of RNA polymerase II in site1 region of APC2 promoter: strengthened
[5]; compared with DMSO group
  nucleus-cytoplasm distribution of beta-catenin: decreased
[5]; multiple tumor cell lines
  protein expression of downstream EMT-related genes: reduced
[6]
  invasion of tumor cells: weakened
[7]; [9]
  protein level of HOTAIR's target genes HOXD10, PCDH10, PCDHB5, NLK, APC2: increase
[7]; 40 uM, time gradient
  protein level of the target genes, time gradient: changed
[7]; [10]
  protein level of the target genes: increased
[8]
  expression of APC2 (immunofluorescence of tissue sections): increased
  expression of beta-catenin (immunofluorescence of tissue sections): decreased
  expression of target genes HOXD10 and PCDH10 (immunofluorescence of tissue sections): increased
[8]; 20 days and 40 days, vs DMSO group
  tumor size (bioluminescence imaging): significantly reduced
[8]; vs DMSO group
  size and wet weight of the tumor after dissection: reduced
  tumor volume measured on the body surface: reduced
[8]; organ imaging
  probability and scope of lung metastasis: smaller
